Test results as given in patent US20140371237A1, “p19Arf, HMGA2 and MDM2 For Use in the Diagnosis and Treatment of Aberrant Cell Growth” (University of Bremen, priority 2010, published 2014).

What was measured:
Format in all cases: cell-based, human
leiomyoma cells [1] = experiment: Treatment of leiomyoma cells with RITA, qRT-PCR; conditions: cells of fibroids, 10 μM RITA, 72 h
Protocol: For treatment with RITA (Biomol, Hamburg, Germany) cells were plated in Leighton-tubes at a density of 200,000 on 10 mm×50 mm cover slips 24 h before incubation with RITA. Cells were treated with 1 μM and 10 μM RITA for 72 h. As controls cells were cultured in medium 199 supplemented with 20% FCS without RITA for 72 h. Relative quantification of transcription levels was carried out by real-time PCR analyses using the Applied Biosystems 7300 real-time PCR system (Applied Biosystems, Darmstadt, Germany). Commercially available gene expression assays (Applied Biosystems, Darmstadt, Germany) were used for quantification of mRNA of human BAX (Hs00180269_m1), p21 (Hs99999142), β-Gal (Hs01035162) and Ki67 (Hs00606991_m1). HPRT served as endogenous control. All qRT-PCR experiments were done in triplicate.

[2] = tested on: explants of fibroids and matching myometrium; experiment: Treatment of explants of fibroids and matching myometrium with RITA, qRT-PCR; conditions: explants in short term culture, RITA 10 μM, 72 h
Protocol: For the experiments explants from a leiomyoma with a clonal complex chromosomal rearrangement involving chromosome 10 along with matching myometrium were taken during surgery and immediately transferred into sterile Hank's solution. For treatment with RITA (Biomol, Hamburg, Germany) tissue samples were minced into small pieces of approximately 0.5 cm diameter and incubated in medium 199 supplemented with 20% FCS and RITA (10 μM) for 72 h. As controls tissue explants were incubated in medium 199 supplemented with 20% FCS without RITA for 72 h. Relative quantification of transcription levels was carried out by real-time PCR analyses using the Applied Biosystems 7300 real-time PCR system (Applied Biosystems, Darmstadt, Germany). Commercially available gene expression assays (Applied Biosystems, Darmstadt, Germany) were used for quantification of mRNA of human BAX (Hs00180269_m1), p21 (Hs99999142), β-Gal (Hs01035162) and Ki67 (Hs00606991_m1). HPRT served as endogenous control. All qRT-PCR experiments were done in triplicate.

leiomyoma cells [3] = experiment: Treatment of leiomyoma cells with Tenovin-1, qRT-PCR of p21 and BAX
Protocol: For treatment with Tenovin-1 (Biomol, Hamburg, Germany) cells were plated in Leighton-tubes at a density of 200,000 on 10 mm×50 mm cover slips 24 h before incubation with Tenovin-1. Cells were treated with 3 μM and 10 μM Tenovin-1 for 24 and for 72 h, respectively. As controls cells were cultured in medium 199 supplemented with 20% FCS without Tenovin-1 for 24 and for 72 h, respectively.

Row | Structure (SMILES) | expression of BAX (leiomyoma cells [1]) | expression of Ki-67 (leiomyoma cells [1]) | expression of p21 (leiomyoma cells [1]) | expression of β-galactosidase (leiomyoma cells [1]) | expression of BAX [2] | expression of p21 [2] | expression of p21 (leiomyoma cells [3]; 3 μM and 10 μM, 24 h and 72 h, p<0.01 with both concentrations) | expression of BAX (leiomyoma cells [3]; significant at 24 h with 3 μM and 10 μM (p<0.001) and 72 h with 10 μM (p<0.01))
1 | OCc1ccc(-c2ccc(-c3ccc(CO)s3)o2)s1 [RITA, 2,5-bis-(5-Hydroxymethyl-2-thienyl)-furan] | significant increase | decrease | significant increase | significant increase | significant increase | significant increase | – | –
2 | CC(=O)Nc1ccc(NC(=S)NC(=O)c2ccc(C(C)(C)C)cc2)cc1 [Tenovin-1] | – | – | – | – | – | – | significant increase | significant increase
